From patent US20260285850A1, “SUBSTITUTED OXAZOLIDINONES AND IMIDAZOLINONES AS HERBICIDES” (FMC CORPORATION, priority 2023, published 2026)

Columns and labels:
Type in all cases: in vivo
[1] = system: sedge, umbrella (small-flower umbrella sedge, Cyperus difformis); experiment: Test B flooded paddy test, visual plant response rating 0-100; conditions: 250 g ai/ha, Flood, applied to paddy water, evaluated after 13 days
Summary of the method: (§1)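 In this flooded assay, 2-leaf seedlings received compound through the water layer, kept at 3 cm over the soil. Plants were held 13 days in a greenhouse and then visually compared with control pots.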

[2] = system: barnyardgrass (Echinochloa crusgalli); experiment: as above; conditions: 250 g ai/ha, Flood, applied to paddy water, evaluated after 13 days
Summary of the method: as §1

[3] = system: ducksalad (Heteranthera limosa); experiment: as above; conditions: 250 g ai/ha, Flood, applied to paddy water, evaluated after 13 days
Summary of the method: as §1

rice (Oryza sativa) = experiment: as above; conditions: 250 g ai/ha, Flood, applied to paddy water, evaluated after 13 days
Summary of the method: as §1

[4] = system: horseweed (Erigeron canadensis); experiment: Test A postemergence application, visual injury rating 0-100; conditions: 10 days
Summary of the method: (§2)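 Visual injury ratings (0, no effect; 100, complete control) were assigned relative to untreated plants 10 days after treatment. Test chemicals, formulated with a surfactant-containing non-phytotoxic solvent, were applied in loam-sand soil either as a directed soil spray before emergence or to emerged plants, and plants were kept in a greenhouse.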

soybean (Glycine max) [5] = experiment: as above; conditions: 10 days
Summary of the method: as §2

[6] = system: wheat (Triticum aestivum); experiment: as above; conditions: 10 days
Summary of the method: as §2

[7] = system: galium (catchweed bedstraw, Galium aparine); experiment: as above; conditions: 10 days
Summary of the method: as §2

[8] = system: blackgrass (Alopecurus myosuroides); experiment: as above; conditions: 10 days
Summary of the method: as §2

[9] = system: green foxtail (Setaria viridis); experiment: as above; conditions: 10 days
Summary of the method: as §2

[10] = system: ryegrass, Italian (italian ryegrass, Lolium multiflorum); experiment: as above; conditions: 10 days
Summary of the method: as §2

corn (Zea mays) [11] = experiment: as above; conditions: 10 days
Summary of the method: as §2

[12] = system: barnyardgrass (Echinochloa crus-galli); experiment: as above; conditions: 10 days
Summary of the method: as §2

[13] = system: oat, wild (wild oat, Avena fatua); experiment: as above; conditions: 10 days
Summary of the method: as §2

kochia (Bassia scoparia) [14] = experiment: as above; conditions: 10 days
Summary of the method: as §2

[15] = system: palmer (palmer amaranth, palmer pigweed, Amaranthus palmeri); experiment: as above; conditions: 10 days
Summary of the method: as §2

[16] = system: ragweed (common ragweed, Ambrosia artemisiifolia); experiment: as above; conditions: 10 days
Summary of the method: as §2

soybean (Glycine max) [17] = experiment: Test A preemergence soil spray, visual injury rating 0-100; conditions: 10 days, 0 = no effect, 100 = complete control
Summary of the method: as §2

[18] = system: wheat (Triticum aestivum); experiment: as above; conditions: 10 days, 0 = no effect, 100 = complete control
Summary of the method: as §2

[19] = system: blackgrass (Alopecurus myosuroides); experiment: as above; conditions: 10 days, 0 = no effect, 100 = complete control
Summary of the method: as §2

[20] = system: green foxtail (Setaria viridis); experiment: as above; conditions: 10 days, 0 = no effect, 100 = complete control
Summary of the method: as §2

[21] = system: ryegrass, Italian (italian ryegrass, Lolium multiflorum); experiment: as above; conditions: 10 days, 0 = no effect, 100 = complete control
Summary of the method: as §2

corn (Zea mays) [22] = experiment: as above; conditions: 10 days, 0 = no effect, 100 = complete control
Summary of the method: as §2

[23] = system: barnyardgrass (Echinochloa crus-galli); experiment: as above; conditions: 10 days, 0 = no effect, 100 = complete control
Summary of the method: as §2

[24] = system: oat, wild (wild oat, Avena fatua); experiment: as above; conditions: 10 days, 0 = no effect, 100 = complete control
Summary of the method: as §2

kochia (Bassia scoparia) [25] = experiment: as above; conditions: 10 days, 0 = no effect, 100 = complete control
Summary of the method: as §2

[26] = system: palmer (palmer amaranth, palmer pigweed, Amaranthus palmeri); experiment: as above; conditions: 10 days, 0 = no effect, 100 = complete control
Summary of the method: as §2

[27] = system: ragweed (common ragweed, Ambrosia artemisiifolia); experiment: as above; conditions: 10 days, 0 = no effect, 100 = complete control
Summary of the method: as §2

[28] = 31 g ai/ha, postemergence, 0 = no effect, 100 = complete control
[29] = Postemergence, 125 g ai/ha, 0 is no effect, 100 is complete control

CSCCOC(=O)C1=CCC(NC(=O)C2(C)CN(c3cc(F)cc(F)c3)C(=O)O2)C1 (stereo not shown) [Compound 23]
Plant response rating, Sedge, Umbrella (0 to 100 scale, 0 is no effect and 100 is complete control) [1]: 86
Plant response rating, Barnyardgrass (0 to 100 scale, 0 is no effect and 100 is complete control) [2]: 95
Plant response rating, Ducksalad (0 to 100 scale, 0 is no effect and 100 is complete control) [3]: 70
Plant response rating, Rice (0 to 100 scale, 0 is no effect and 100 is complete control) (rice (Oryza sativa)): 85
Horseweed plant response rating (0-100) [4, 28]: 80
Horseweed plant response rating (0 to 100 scale) [4, 29]: 90
Soybean plant response rating (0-100) (soybean (Glycine max) [5]; [28]): 80
Soybean plant response rating (0 to 100 scale) (soybean (Glycine max) [5]; [29]): 90
Wheat plant response rating (0-100) [6, 28]: 90
Wheat plant response rating (0 to 100 scale) [6, 29]: 90
Galium plant response rating (0-100) [7, 28]: 80
Galium plant response rating (0 to 100 scale) [7, 29]: 90
Blackgrass plant response rating (0-100) [8, 28]: 90
Blackgrass plant response rating (0 to 100 scale) [8, 29]: 100
Foxtail, Green plant response rating (0-100) [9, 28]: 90
Foxtail, Green plant response rating (0 to 100 scale) [9, 29]: 90
Ryegrass, Italian plant response rating (0-100) [10, 28]: 80
Ryegrass, Italian plant response rating (0 to 100 scale) [10, 29]: 70
Corn plant response rating (0-100) (corn (Zea mays) [11]; [28]): 100
Corn plant response rating (0 to 100 scale) (corn (Zea mays) [11]; [29]): 100
Barnyardgrass plant response rating (0-100) [12, 28]: 100
Barnyardgrass plant response rating (0 to 100 scale) [12, 29]: 100
Oat, Wild plant response rating (0-100) [13, 28]: 90
Oat, Wild plant response rating (0 to 100 scale) [13, 29]: 100
Kochia plant response rating (0-100) (kochia (Bassia scoparia) [14]; [28]): 80
Kochia plant response rating (0 to 100 scale) (kochia (Bassia scoparia) [14]; [29]): 90
Amaranth, Palmer plant response rating (0-100) [15, 28]: 80
Amaranth, Palmer / Pigweed, Palmer plant response rating (0 to 100 scale) [15, 29]: 90
Ragweed plant response rating (0-100) [16, 28]: 60
Ragweed plant response rating (0 to 100 scale) [16, 29]: 70
Soybean plant response rating (0-100) (soybean (Glycine max) [17]; 31 g ai/ha): 10
Soybean plant response rating (0 to 100 scale) (soybean (Glycine max) [17]; 125 g ai/ha): 70
Wheat plant response rating (0-100) ([18]; 31 g ai/ha): 80
Wheat plant response rating (0 to 100 scale) ([18]; 125 g ai/ha): 90
Blackgrass plant response rating (0-100) ([19]; 31 g ai/ha): 80
Blackgrass plant response rating (0 to 100 scale) ([19]; 125 g ai/ha): 90
Foxtail, Green plant response rating (0-100) ([20]; 31 g ai/ha): 70
Foxtail, Green plant response rating (0 to 100 scale) ([20]; 125 g ai/ha): 100
Ryegrass, Italian plant response rating (0-100) ([21]; 31 g ai/ha): 80
Ryegrass, Italian plant response rating (0 to 100 scale) ([21]; 125 g ai/ha): 90
Corn plant response rating (0-100) (corn (Zea mays) [22]; 31 g ai/ha): 30
Corn plant response rating (0 to 100 scale) (corn (Zea mays) [22]; 125 g ai/ha): 80
Barnyardgrass plant response rating (0-100) ([23]; 31 g ai/ha): 60
Barnyardgrass plant response rating (0 to 100 scale) ([23]; 125 g ai/ha): 100
Oat, Wild plant response rating (0-100) ([24]; 31 g ai/ha): 20
Oat, Wild plant response rating (0 to 100 scale) ([24]; 125 g ai/ha): 60
Kochia plant response rating (0-100) (kochia (Bassia scoparia) [25]; 31 g ai/ha): 0
Kochia plant response rating (0 to 100 scale) (kochia (Bassia scoparia) [25]; 125 g ai/ha): 90
Amaranth, Palmer plant response rating (0-100) ([26]; 31 g ai/ha): 30
Amaranth, Palmer plant response rating (0 to 100 scale) ([26]; 125 g ai/ha): 90
Ragweed plant response rating (0-100) ([27]; 31 g ai/ha): 0
Ragweed plant response rating (0 to 100 scale) ([27]; 125 g ai/ha): 70
